Laboratory results as given in patent publication US4472320A (priority 1981, dated 1984).
Where a name gives a salt, the structure may show the parent alone.

Assays:
guinea pigs = details: guinea pig, in vivo; cited from earlier work
[1] = molecular target: AChE, eel (acetylcholinesterase, EC 3.1.1.7) (Electrophorus electricus, UniProt O42275); format: biochemical, electric eel
[2] = molecular target: BuChE, horse (butyrylcholinesterase, EC 3.1.1.8) (Equus caballus, UniProt P81908); format: biochemical
Chain of BuChE, horse (butyrylcholinesterase, EC 3.1.1.8) (P81908 whole entry): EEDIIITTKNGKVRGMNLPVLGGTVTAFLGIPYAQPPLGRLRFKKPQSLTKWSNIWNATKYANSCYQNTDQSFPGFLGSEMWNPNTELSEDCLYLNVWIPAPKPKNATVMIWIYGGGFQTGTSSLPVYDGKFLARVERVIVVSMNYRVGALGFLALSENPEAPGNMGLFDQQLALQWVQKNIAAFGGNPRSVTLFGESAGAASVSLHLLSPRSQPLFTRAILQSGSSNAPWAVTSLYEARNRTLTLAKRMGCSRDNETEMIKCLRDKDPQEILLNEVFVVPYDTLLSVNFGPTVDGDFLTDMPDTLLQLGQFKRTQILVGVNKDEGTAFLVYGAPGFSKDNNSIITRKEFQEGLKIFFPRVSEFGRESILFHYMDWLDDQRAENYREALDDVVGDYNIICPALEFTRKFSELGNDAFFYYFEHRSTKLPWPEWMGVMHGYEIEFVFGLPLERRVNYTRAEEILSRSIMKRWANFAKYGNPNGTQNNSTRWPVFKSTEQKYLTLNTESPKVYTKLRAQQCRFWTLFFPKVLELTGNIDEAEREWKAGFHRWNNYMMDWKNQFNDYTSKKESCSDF

Chain of AChE, eel (acetylcholinesterase, EC 3.1.1.7) (O42275 24-633): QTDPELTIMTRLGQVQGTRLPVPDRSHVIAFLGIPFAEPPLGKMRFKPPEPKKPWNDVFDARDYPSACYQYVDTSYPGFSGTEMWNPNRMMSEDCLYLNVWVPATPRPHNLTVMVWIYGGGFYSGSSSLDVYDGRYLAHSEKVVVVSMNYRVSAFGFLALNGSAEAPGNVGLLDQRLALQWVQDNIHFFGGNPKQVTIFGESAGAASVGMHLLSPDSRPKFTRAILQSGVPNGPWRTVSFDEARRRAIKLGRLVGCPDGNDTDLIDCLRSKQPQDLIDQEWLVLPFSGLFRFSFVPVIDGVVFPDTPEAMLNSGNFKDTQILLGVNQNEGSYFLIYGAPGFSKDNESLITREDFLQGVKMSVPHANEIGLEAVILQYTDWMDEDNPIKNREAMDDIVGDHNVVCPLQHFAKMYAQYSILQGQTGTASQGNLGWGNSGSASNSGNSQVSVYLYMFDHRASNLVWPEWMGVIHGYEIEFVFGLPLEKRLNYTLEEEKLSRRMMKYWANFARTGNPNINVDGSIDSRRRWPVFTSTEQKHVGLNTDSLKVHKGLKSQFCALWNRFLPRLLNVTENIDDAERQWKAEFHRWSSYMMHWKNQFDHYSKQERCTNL

CN(C)C(=O)Oc1ccc[n+](C)c1 [pyridostigmine iodide]
maximum dosage which does not result in side-effects (guinea pigs): 0.1 mg/kg

C[n+]1cccc(C=NO)c1 [3-PAM]
effect of oxime on spontaneous reactivation of TDPI-inhibited AChE [1]: did not enhance the regeneration of enzyme activity

C[n+]1ccccc1C=NO.[I-] [2-PAM, 2-hydroximinomethyl-1-methylpyridinium iodide]
effect of oxime on spontaneous reactivation of TDPI-inhibited AChE [1]: accelerated significantly the spontaneous reactivation | effect of oxime on reactivation of TDPI-inhibited BuChE [2]: enhanced the reactivation of horse serum BuChE

CNC(=O)Oc1ccc2c(c1)[C@]1(C)CCN(C)[C@@H]1N2C [physostigmine sulfate]
maximum dosage which does not result in side-effects (guinea pigs): 0.1 mg/kg
